Experimental data: patent US20230044958A1, “METHOD OF TREATING VIRUS INFECTION USING A TLR7 AGONIST” (Hoffmann-La Roche Inc., priority 2019, published 2023)

Key:
[1] = Safety and tolerability of Compound (I) in chronic hepatitis B patients; assay type: in vivo, human
Excerpt: (§1) In this invention, methods of the entire treatment comprising Compound (I) monotherapy or Compound (I) in combination with other anti-HBV drug(s) for 24-120 weeks were developed.

HBV [2] = assay: Treatment of HBV-infected patients with Compound (I), alone or in combination; assay type: in vivo, human
Excerpt: as §1
Furthermore, treatment method of Compound (I) in combination with other anti-HBV drugs results in significant hepatitis B surface antigen (HBsAg) decline or loss. […] However, the method of treatment of this invention with Compound (I) can also induce robust HBV DNA and HBV RNA decline in such patients.

HBV [3] = details: cited from earlier work
[4] = patients under the treatment methods of the invention

## CC[C@H](OC(C)=O)[C@@H]1C[C@@H](O)[C@H](n2c(=O)sc3cnc(N)nc32)O1 [Compound (I), (1S)-1-[(2S,4R,5R)-5-(5-amino-2-oxo-thiazolo[4,5-d]pyrimidin-3-yl)-4-hydroxy-tetrahydrofuran-2-yl]propyl] acetate]
[1]
  safety and tolerability: safe and well tolerated
HBV [2]; Compound (I) in combination with other anti-HBV drugs
  hepatitis B surface antigen (HBsAg) decline or loss: significant
HBV [2]; [4]
  HBV DNA decline: robust
  HBV RNA decline: robust

## CCCCOc1nc(N)c2c(n1)N(Cc1cccc(CN3CCCC3)c1)CC(=O)N2 [Vesatolimod]
HBV [3]; weekly dosing for 4, 8, 12 weeks, virally suppressed patients with chronic hepatitis B
  HBsAg decline: did not show HBsAg decline
HBV [3]; weekly dosing for 12 weeks in combination with tenofovir disoproxil fumarate, viremic CHB patients not on oral antiviral treatment
  change in HBsAg after treatment: did not demonstrate any meaningful change in HBsAg
